Measurements: ChEMBL document CHEMBL1154923 (J Med Chem, 2010)

Molecular target: T1, Rhodopsin kinase GRK7 (Homo sapiens, UniProt Q8WTQ7)
T1 sequence (Q8WTQ7 whole entry): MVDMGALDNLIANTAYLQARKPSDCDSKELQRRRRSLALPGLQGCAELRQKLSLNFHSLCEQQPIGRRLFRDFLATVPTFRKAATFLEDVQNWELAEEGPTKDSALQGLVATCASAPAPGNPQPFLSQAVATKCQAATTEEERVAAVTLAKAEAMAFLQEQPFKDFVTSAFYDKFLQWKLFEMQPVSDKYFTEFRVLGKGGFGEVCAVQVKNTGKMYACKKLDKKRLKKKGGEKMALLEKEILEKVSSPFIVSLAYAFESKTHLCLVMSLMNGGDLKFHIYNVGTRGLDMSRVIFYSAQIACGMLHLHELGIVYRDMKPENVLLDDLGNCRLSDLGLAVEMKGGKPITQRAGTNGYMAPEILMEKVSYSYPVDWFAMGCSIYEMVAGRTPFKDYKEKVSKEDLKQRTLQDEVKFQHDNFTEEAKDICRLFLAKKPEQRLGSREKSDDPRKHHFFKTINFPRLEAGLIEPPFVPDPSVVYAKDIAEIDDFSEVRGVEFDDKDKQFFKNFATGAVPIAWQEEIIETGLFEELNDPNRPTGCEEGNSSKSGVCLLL
Experiment: Inhibition of GRK7-mediated bovine tubulin phosphorylation by scintillation counting

IC50: 180 nM
SMILES: O=C(N[C@@H]1CNCCC[C@H]1OC(=O)c1cc(O)c(C(=O)c2c(O)cccc2C(=O)O)c(O)c1)c1ccc(O)cc1 [BALANOL]
